From patent publication US20110105608A1, “MODULATORS OF NUCLEAR RECEPTOR CO-REGULATORY PROTEIN BINDING” (NORTHEASTERN UNIVERSITY, priority 2008, published 2011)
“And” between values parts separate entries of the source, which are not always exact repeats. Identical values can stand only once. Like-named read-outs stand apart in the source and are kept apart here.

Experiments:
[1] = target: T1, interaction between ERα and the LXXLL2 peptide from the coactivator GRIP1 (Homo sapiens, UniProt P03372); assay: Mammalian two hybrid assay; format: cell-based; conditions: FIG. 4; for Effect on the LXXLL-ER interaction: second assay, 5-40 μM
T1 construct: expressed in transfected cells
T1 sequence (P03372 1-595): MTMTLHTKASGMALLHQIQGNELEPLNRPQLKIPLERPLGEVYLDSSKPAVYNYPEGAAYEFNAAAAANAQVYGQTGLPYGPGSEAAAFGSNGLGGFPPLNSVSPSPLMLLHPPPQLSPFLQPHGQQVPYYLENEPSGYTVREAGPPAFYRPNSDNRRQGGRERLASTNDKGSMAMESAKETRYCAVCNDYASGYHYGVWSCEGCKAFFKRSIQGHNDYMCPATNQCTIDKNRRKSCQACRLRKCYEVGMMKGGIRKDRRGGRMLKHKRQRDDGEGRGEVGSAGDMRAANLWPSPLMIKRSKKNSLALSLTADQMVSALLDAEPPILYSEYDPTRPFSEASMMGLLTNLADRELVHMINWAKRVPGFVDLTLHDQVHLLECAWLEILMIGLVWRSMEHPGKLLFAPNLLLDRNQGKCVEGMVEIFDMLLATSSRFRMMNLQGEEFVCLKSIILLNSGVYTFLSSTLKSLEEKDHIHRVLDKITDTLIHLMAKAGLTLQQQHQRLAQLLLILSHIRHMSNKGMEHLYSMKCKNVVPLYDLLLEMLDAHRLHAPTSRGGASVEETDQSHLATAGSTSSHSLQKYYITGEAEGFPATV
Procedure: The Mammalian Hybrid Assay used a similar procedure as described in Chang et al., Molec. & Cellul. Biol., (1999) 19:12 8226-8239 except the compounds shown in Table 1, supra, were used instead of phage-derived peptides.
(§1) Human cervical cancer (HeLa) and hepatoma (HepG2) cells were cultured in minimum essential medium (Life Technologies, Inc.) supplemented with 10% fetal bovine serum (HyClone), 0.1 mM nonessential amino acids, and 1 mM sodium pyruvate (Life Technologies, Inc.) and maintained in a humidified 37° C. incubator with 5% CO2. For transient transfections, cells were split into 24-well plates 24 h before transfection. Lipofectin (Life Technologies, Inc.)-mediated transfection has been described in detail previously (27). A DNA-Lipofectin mixture containing a total of 3,000 ng of plasmid in each of triplicate samples was incubated with cells for 3 to 5 h, and transfection was stopped by replacing the transfection mix with fresh medium (minimal essential medium without phenol red) containing 10% charcoal-stripped serum. Receptor ligands were added to the cells 14 to 16 h before the assay. Luciferase and (3-galactosidase activities were measured. In mammalian two-hybrid assays, for a typical triplicate of transfection, 2,000 ng of 5×Gal4Luc3 reporter plasmid, 400 ng of receptor-VP16 fusion, 400 ng of pM (Gal4 DBD)-peptide fusion constructs, and 200 ng of normalization plasmid pCMVβgal were used. For ER transcription disruption assays, 1,600 ng of 3 XERE-TATA-Luc reporter, 200 ng of pCMVβgal, 400 ng of either pRST7ERα, pRST7ERβ, or other receptor mutant constructs, and 0 to 800 ng of pM-peptide fusion plasmids were used. The parent pM vector (Gal4DBD without peptide fusion) was used in these experiments to balance the amount of input DNA in transfections. All transfections were performed at least three times.
The mammalian two hybrid assay assessed whether the compounds disrupt the interaction between ERα and an LXXLL peptide derived from an ER coactivator (GRIP1). OH-tam is an ERα antagonist and was used as a positive control.
(§2) A second assay with another group of compounds was performed to determine the proper dose for use in cell culture. Compounds were used at concentrations between 5-40 μM. The mammalian two hybrid assay was used to examine the interaction between ERα and the LXXLL2 peptide from the coactivator GRIP1. #82 and OH-tam were used as controls.

[2] = target: T2, ERα-417 / SRC-3-NRD (Homo sapiens, UniProt P03372, C381S/C530S); assay: In vitro coactivator binding inhibitor TR-FRET CBI assay (displacement of SRC3); conditions: * = very small dynamic range compared to positive control
T2 sequence (P03372 304-554 C381S/C530S limits assumed): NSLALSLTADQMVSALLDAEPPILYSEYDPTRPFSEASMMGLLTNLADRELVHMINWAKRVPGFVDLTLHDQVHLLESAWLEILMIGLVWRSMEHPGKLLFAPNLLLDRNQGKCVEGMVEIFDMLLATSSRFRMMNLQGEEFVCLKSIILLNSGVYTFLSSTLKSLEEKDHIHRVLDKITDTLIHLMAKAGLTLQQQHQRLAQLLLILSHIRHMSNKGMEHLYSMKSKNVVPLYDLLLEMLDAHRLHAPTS
Source text: (§3) The protocols for both the time-resolved fluorescence resonance energy transfer (TR-FRET) assay and the cell-based reporter gene assay can be found in Parent, et al. (2008) J. Med. Chem. 51(20):6512-30. A 15-mer SRC1-Box II peptide and a published guanylhydrazone CBI (Lafrate et al., (2008) Bioorg. Med. Chem. 2008:16(23)) were used as positive controls in the TR-FRET and reporter gene assays, respectively.
Purified ERα-417, labeled site-specifically with maleimide-biotin (Quanta BioDesign) and SRC-3-NRD, labeled nonspecifically through cysteine residues with iodoacetamide-fluorescein (Invitrogen), were used in the TR-FRET assays. […]. In a second 96-well Nunc polypropylene plate (Nalge Nunc International, Rochester, N.Y.), a 0.02 M solution of each coactivator binding inhibitor was serially diluted in a 1:10 fashion into DMF. Each concentration of coactivator binding inhibitor or vehicle was then diluted 1:10 into TR-FRET buffer, and 10 μL of this solution was added to the stock […] solution in the 96-well plate. After a 20 min incubation, 5 μL of 200 nM fluorescein-SRC-3-NRD was added to each well. This mixture was allowed to incubate for 1 h at RT in the dark. TR-FRET was measured using an excitation filter at 340/10 nm and emission filters for terbium and fluorescein at 495/20 and 520/25 nm, respectively. […].
The results are shown in FIGS. 1A and 1b and show the displacement of the SRC3. The peptide control has an IC50 of about 1 uM.

[3] = target: T3, purified full-length human ERα (Homo sapiens, UniProt P03372); assay: Estrogen receptor relative binding affinity assay, competitive radiometric, [3H]estradiol tracer; conditions: RBA of estradiol set to 100%, 18-24 h at 0° C.
T3 construct: purified full-length human ERα and ERβ were purchased from PanVera/Invitrogen; purchased PanVera/Invitrogen (Carlsbad, Calif.)
T3 sequence (P03372 1-595): T1 sequence (P03372 1-595)
Procedure: (§4) Relative binding affinity assays were run to determine whether the compounds of this disclosure are traditional ligands that compete with estradiol. […]; purified full-length human ERα and ERβ were purchased from PanVera/Invitrogen (Carlsbad, Calif.). Incubations were conducted for 18-24 h at 0° C. Hydroxyapatite (BioRad, Hercules, Calif.) was used to absorb the receptor-ligand complexes, and free ligand was washed away. The binding affinities are expressed as relative binding affinity (RBA) values with the RBA of estradiol set to 100%. […]

[4] = target: T4, purified full-length human ERβ (Homo sapiens, UniProt Q92731); assay: as above; conditions: RBA of estradiol set to 100%, 18-24 h at 0° C.
T4 construct: purified full-length human ERα and ERβ were purchased from PanVera/Invitrogen; purchased PanVera/Invitrogen (Carlsbad, Calif.)
Procedure: as §4

[5] = target: T5, full-length ER alpha (Homo sapiens, UniProt P03372); assay: Cell-based luciferase reporter gene assay (2ERE Luc) in HEC-1 cells; conditions: * = very small dynamic range compared to positive control
T5 construct: 100 ng of full-length ER alpha expression vector; expressed in transfected cells; host or cells: HEC-1 (human endometrial cancer) cells
T5 sequence (P03372 1-595): T1 sequence (P03372 1-595)
Source text: as §3
Human endometrial cancer (HEC-1) cells were maintained in culture and transfected in 24 well plates. HBSS (50 μL/well), Holo-transferrin (Sigma T1408) (20 μL/well), and lipofectin (Invitrogen no. 18292-011) (5 μL/well) were incubated together at RT for 5 min. A DNA mixture containing 200 ng of pCMVβ-galactosidase as an internal control, 500 ng of the estrogen responsive reporter gene plasmid 2ERE Luc, and 100 ng of full-length ER alpha expression vector with 75 μL of HBSS per well was added to the first mixture and allowed to incubate for 20 min at RT. After changing the cell media to Opti-MEM (350 μL/well), 150 μL of the transfection mixture was added to each well. The cells were incubated at 37° C. in a 5% CO2 containing incubator for 6 h before the medium was replaced with fresh medium containing 5% charcoal-dextran-treated calf serum and the desired concentrations of ligands. Luciferase reporter gene activity was assayed 24 h after ligand addition.
In the initial screen, compounds were assayed in a dose-response format at concentrations ranging from 20 μM to 0.6 μM; […]. Upon validation of antagonistic activity, mechanism of action was examined by repeating the compound titration in the presence of both 10^-7 and 10^-9 M E2 with an expectation that changing the concentration of E2 100-fold would not change the IC50 of true coactivator binding inhibitors. These assays was also repeated to confirm results. The positive control is a guanyl hydrazone.

[6] = system: cells; assay: Toxicity to cells seen in the mammalian two hybrid dose-finding assay; format: cell-based, Human; conditions: FIG. 4; 5-40 μM in cell culture
Procedure: as §1, §2
AW78 was also effective. […] AW77 was very toxic to cells at the high concentrations tested.

[7] = target: T6, endogenous ERα in MCF7 cells (Homo sapiens, UniProt P03372); assay: RBA assay, competition with 3H-estradiol in MCF7 cells; format: binding; conditions: 1 nM 3H-estradiol
T6 construct: the endogenous ERα in MCF7 cells; endogenous in cells; host or cells: MCF7 breast cancer cells
T6 sequence (P03372 1-595): T1 sequence (P03372 1-595)
Procedure: The RBA assay was performed to examine the ability of the compounds to compete for the binding of 1 nM of 3H-estradiol to the endogenous ERα in MCF7 cells.

[8] = estradiol 1 μM, read-out: TR-FRET IC50
[9] = repeat run, read-out: TR-FRET Repeat
[10] = HEC-1 cells, in the presence of estradiol, read-out: Reporter Gene IC50
[11] = repeat run, read-out: Reporter Gene IC50 (μM) - repeat

T4 sequence (Q92731 whole entry): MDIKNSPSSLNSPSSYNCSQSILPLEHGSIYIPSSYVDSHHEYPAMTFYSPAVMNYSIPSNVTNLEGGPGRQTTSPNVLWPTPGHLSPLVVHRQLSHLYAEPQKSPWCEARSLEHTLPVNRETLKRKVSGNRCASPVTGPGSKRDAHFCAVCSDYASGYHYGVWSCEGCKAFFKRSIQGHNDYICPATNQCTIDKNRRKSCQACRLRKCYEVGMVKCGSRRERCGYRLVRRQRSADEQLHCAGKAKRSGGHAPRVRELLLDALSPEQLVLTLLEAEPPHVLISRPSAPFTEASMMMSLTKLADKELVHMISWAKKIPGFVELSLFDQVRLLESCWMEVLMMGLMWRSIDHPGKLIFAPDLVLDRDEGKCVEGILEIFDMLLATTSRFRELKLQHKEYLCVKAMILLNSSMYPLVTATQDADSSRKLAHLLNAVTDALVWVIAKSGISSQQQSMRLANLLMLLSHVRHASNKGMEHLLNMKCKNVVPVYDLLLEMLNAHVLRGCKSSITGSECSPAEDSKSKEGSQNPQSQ

CCOC(=O)COc1ccc(-c2ccc(O)cc2)cc1 [AW-84]
Effect on the LXXLL-ER interaction [1]: induced LXXLL-ER interaction

CCC(C)c1cc(-c2ccc(OCC(=O)O)c(C(C)CC)c2)ccc1OCCN(C)C (stereo not drawn) [AW-87]
IC50 [2, 8]: 87 µM | IC50 [2, 9]: 227 µM | ERα RBA [3]: ~0.001% | ERβ RBA [4]: ~0.001% | IC50 [5, 10]: 1.8 µM | IC50 [5, 11]: 6 µM

CCOC(=O)COc1ccc(-c2ccc(O)c(C(C)CC)c2)cc1C(C)CC (stereo not drawn) [AW-78]
Effect on the LXXLL-ER interaction [1]: effective

CCOC(=O)COc1ccc(-c2ccc(OCCN(C)C)cc2)cc1 [PW-82]
Effect on the LXXLL-ER interaction [1]: induced LXXLL-ER interaction

CCOC(=O)COc1ccc(-c2ccc(O)c(Cc3ccccc3)c2)cc1Cc1ccccc1 [PW-77]
Toxicity to cells [6]: very toxic

CCOC(=O)COc1ccc(-c2ccc(O)c(C(C)(C)C)c2)cc1C(C)(C)C [AW-73]
Effect on the LXXLL-ER interaction [1]: induced LXXLL-ER interaction

CN(C)CCOc1ccc(-c2ccc(OCC(=O)O)cc2)cc1 [PW-83]
IC50 [2, 8]: 205 µM | IC50 [2, 9]: 2050 µM | ERα RBA [3]: <0.001% | ERβ RBA [4]: <0.001% | IC50 [5, 10]: 5.8 µM | IC50 [5, 11]: 18 µM | Competition for the binding of 3H-estradiol [7]: competed

CN(C)CCOc1ccc(-c2ccc(OCC(=O)O)c(C(C)(C)C)c2)cc1C(C)(C)C [AW-82]
ERα RBA ([3]; listed as AW-III-82-56): 0.055% and 0.038% and 0.049 ± 0.016% | ERβ RBA ([4]; listed as AW-III-82-56): 0.018% and 0.017% and 0.018 ± 0.001% | IC50 [5, 10]: 6 µM | Competition for the binding of 3H-estradiol [7]: competed

CCOC(=O)COc1ccc(-c2ccc(OCCN(C)C)c(Cc3ccccc3)c2)cc1Cc1ccccc1 [PW-78]
Effect on the LXXLL-ER interaction [1]: induced LXXLL-ER interaction

CCOC(=O)COc1ccc(-c2ccc(O)c(C(C)C)c2)cc1C(C)C [PW-74]
Toxicity to cells [6]: no significant toxicity | Concentration at which the ERα-LXXLL2 interaction is inhibited ([1]; tested at 5-40 μM): about 40 μM

CCOC(=O)COc1ccc(-c2ccc(OCCN(C)C)c(C(C)CC)c2)cc1C(C)CC (stereo not drawn) [AW-79]
Toxicity to cells [6]: toxic at a high dose | Effect on the LXXLL-ER interaction [1]: induced LXXLL-ER interaction

CC(C)c1cc(-c2ccc(OCC(=O)O)c(C(C)C)c2)ccc1OCCN(C)C [PW-80]
IC50 [2, 8]: 55 µM | IC50 [2, 9]: 583 µM | ERα RBA [3]: <0.001% | ERβ RBA [4]: <0.001% | IC50 [5, 10]: 21 µM

CN(C)CCOc1ccc(-c2ccc(OCC(=O)O)c(Cc3ccccc3)c2)cc1Cc1ccccc1 [PW-81]
IC50 [2, 8]: 163 µM | IC50 [2, 9]: 1100 µM | ERα RBA [3]: <0.001% | ERβ RBA [4]: ~0.001% | IC50 [5, 10]: 13 µM | Competition for the binding of 3H-estradiol [7]: did not compete

CCOC(=O)COc1ccc(-c2ccc(OCCN(C)C)c(C(C)C)c2)cc1C(C)C [PW-76]
Effect on the LXXLL-ER interaction [1]: induced LXXLL-ER interaction
